{"source": "the METLIN SMRT retention time set (Domingo-Almenara et al. 2019)"}
{"test": "gradient 5% acetonitrile 3 min, to 50% in 2 min, to 85% in 15 min, held 3 min, 100 µL/min", "details": "column: Zorbax Extend-C18 2.1 x 50 mm; eluents: water / acetonitrile, 0.1% formic acid", "procedure,_shortened": "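The mobile phases were water and acetonitrile, each with 0.1% formic acid, pumped at 100 μL/min through a Zorbax Extend-C18 column (2.1 × 50 mm, 1.8 μm). Pure standards were injected as mixtures of ~100 molecules and detected by a quadrupole time-of-flight mass spectrometer in positive and negative ionization mode. Retention time came from computationally picked adduct peaks, each inspected by hand.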", "units": {"RP-LC retention time": "s"}}
{"smiles": "Cc1cc(C)cc(-n2ccc(=O)c(-c3nc(-c4ccc5c(c4)OCO5)no3)n2)c1", "RP-LC retention time": 996}
{"smiles": "CN(C)c1ccc(CNC(=O)Cn2nc(C(=O)N3CCCC3)c3ccccc32)cc1", "RP-LC retention time": 612}
{"smiles": "Cc1csc(-c2ccc(N3CCN(C(=O)c4ccoc4)CC3)nc2)n1", "RP-LC retention time": 716}
{"smiles": "COc1ccc(-n2c(=O)n(C)c(=O)c3cc(C(=O)Nc4ccc(F)cc4C)cnc32)cc1", "RP-LC retention time": 866}
{"smiles": "O=S(=O)(c1cccnc1)N1CC(c2noc(C3CCCN3CC3CC3)n2)C1", "note": "(centres undefined)", "RP-LC retention time": 592}
{"smiles": "CCn1nc(-c2ccccc2)c(-c2ccccc2)c(C(=O)OC)c1=O", "RP-LC retention time": 973}
{"smiles": "O=C(NCC1(CO)CC1)c1c(F)cccc1Cl", "RP-LC retention time": 609}
{"smiles": "CN1C(=O)c2cccn2CC1CNC(=O)c1cc(CN2CCOCC2)on1", "note": "(centres undefined)", "RP-LC retention time": 548}
{"smiles": "O=C(c1ccoc1)N1CC(n2cc(COCc3ccccc3)nn2)C1", "RP-LC retention time": 734}
{"smiles": "CCOc1ccccc1CN1C(=O)c2ccccc2C1C(=O)NC(C)CC", "note": "(centres undefined)", "RP-LC retention time": 899}
{"smiles": "COc1ccc(Nc2cc(C(=O)N3CCC(C)CC3)nc3cc(OC)c(OC)cc23)cc1Cl", "RP-LC retention time": 778}
{"smiles": "O=C(Nc1ccc(Cl)cc1)C1CC(=O)N(c2n[nH]c3cccc(F)c23)C1", "note": "(centres undefined)", "RP-LC retention time": 787}
{"smiles": "CCC(CC)C(=O)Nc1c(-c2ccc(OC)cc2)nc2cc(C)ccn12", "RP-LC retention time": 672}
{"smiles": "Cc1ccc(NC(=O)Cn2nc(N3CCOCC3)c3ccccc3c2=O)cc1", "RP-LC retention time": 789}
{"smiles": "Cc1cc(NC(=O)C2CCN(S(=O)(=O)c3cn(C)cn3)CC2)ccc1Br", "RP-LC retention time": 802}
{"smiles": "Cc1ccn2cc(-c3ccc(NC(=O)c4ccccc4[N+](=O)[O-])cc3)nc2n1", "RP-LC retention time": 622}
{"smiles": "CCn1c(C(=O)Nc2cc(C)ccc2C)cc2sc(Cl)cc21", "RP-LC retention time": 1230}
{"smiles": "O=S(=O)(Nc1ccc(Cn2cncn2)cc1)c1ccc2c(c1)CCC2", "RP-LC retention time": 759}
{"smiles": "Cc1ccc2cc(CCC(=O)NCCCN(C)C)c(=O)[nH]c2c1", "RP-LC retention time": 577}
{"smiles": "OCCn1cc(-c2cnc3nnn(Cc4ccc5ncccc5c4)c3n2)cn1", "RP-LC retention time": 620}
{"smiles": "O=C(CC1CCCCC1)Nc1cccc(-c2nnc3n2CCCC3)c1", "RP-LC retention time": 731}
{"smiles": "CCC1(C(=O)Nc2ccc(C)c(F)c2)CCCCC(=O)N1", "note": "(centres undefined)", "RP-LC retention time": 771}
{"smiles": "Fc1cccc(Cn2cc(-c3noc(C4CCCC4)n3)nn2)c1", "RP-LC retention time": 1010}
{"smiles": "Cc1cccc(N2CCN(Cc3nc(-c4ccc(N5CCOCC5)nc4)no3)CC2)c1C", "RP-LC retention time": 945}
{"smiles": "Cc1ccc(-n2c(SCc3nc(-c4ccc(F)cc4)no3)nc3cc4c(cc3c2=O)OCO4)cc1", "RP-LC retention time": 1220}
{"smiles": "Cc1ccccc1NC(=O)Cn1c(C(F)(F)F)nc2cc3c(cc21)OCCO3", "RP-LC retention time": 857}
{"smiles": "Cc1ccc(S(=O)(=O)Nc2ccc(Cn3cncn3)cc2)cc1F", "RP-LC retention time": 732}
{"smiles": "CCc1ccc(NC(=O)C2CCN(S(=O)(=O)c3cn(CC)cn3)CC2)cc1", "RP-LC retention time": 794}
{"smiles": "CCCn1c(=O)sc2cc(S(=O)(=O)N3CCC(C(=O)N4CCN(CC)CC4)CC3)ccc21", "RP-LC retention time": 640}
{"smiles": "CCN(CC)CCNC(=O)c1nnc(-c2oc3c(C)cccc3c2C)o1", "RP-LC retention time": 683}
{"smiles": "CCc1cc(C(=O)N2CCCCCC2)nc2cc(-c3ccsc3)nn12", "RP-LC retention time": 1070}
{"smiles": "CCC(C)(C)NS(=O)(=O)c1cc(-c2nc(C)c(C(=O)N3CCCC3)s2)n(C)c1", "RP-LC retention time": 838}
{"smiles": "COc1ccccc1C(=O)N1C[C@H](c2nc(-c3ccccc3)no2)[C@@H](C)C1", "RP-LC retention time": 820}
{"smiles": "Cc1ccc(NC(=O)CN2C(=O)CCCc3cc(S(=O)(=O)N4CCCC4)ccc32)cc1Cl", "RP-LC retention time": 943}
{"smiles": "CN(C)c1ncccc1C(=O)Nc1ccccc1Cl", "RP-LC retention time": 716}
{"smiles": "CCc1ccc(Nc2nc(C(=O)NCCC(C)C)nc3ccccc23)cc1", "RP-LC retention time": 964}
{"smiles": "CCc1cc(-c2csc(S(=O)(=O)NCc3ccc(Br)cc3)c2)on1", "RP-LC retention time": 1020}
{"smiles": "Cc1nc(CSc2cc(-c3ccccc3)ncn2)cs1", "RP-LC retention time": 907}
{"smiles": "OCCOCCNCc1ccc(-c2ccccc2F)o1", "RP-LC retention time": 616}
{"smiles": "CCN1CCCC1CNC(=O)c1ccc2nc(Cc3ccccc3)oc2c1", "note": "(centres undefined)", "RP-LC retention time": 650}
{"smiles": "COc1ccc2c(c1)C1(CCN(C(=O)Nc3ccc(OC)c(OC)c3)C1)C(=O)N2", "note": "(centres undefined)", "RP-LC retention time": 671}
{"smiles": "O=C(Cc1nnc(-c2ccc3ncccc3c2)o1)NCc1ccccc1Cl", "RP-LC retention time": 711}
{"smiles": "CCOc1ccc(NC(=O)C2CCCN(c3ncnc4c3nc3n4CCCCC3)C2)cc1", "note": "(centres undefined)", "RP-LC retention time": 732}
{"smiles": "COc1ccc2nc(NC(=O)Cn3nc(C(=O)N4CCOCC4)c4ccccc43)sc2c1", "RP-LC retention time": 761}
{"smiles": "COCC(=O)Nc1cc2c(cc1N1CCCCC1)n(C)c(=O)c(=O)n2C", "RP-LC retention time": 775}
{"smiles": "CCOC(=O)c1ccc(NC(=O)c2ccccc2-c2ccccc2C(=O)O)cc1", "RP-LC retention time": 842}
{"smiles": "COc1cccc(-c2nnc(NC(=O)c3ccccc3Br)o2)c1", "RP-LC retention time": 734}
{"smiles": "CCc1noc(C2(NC(=O)COc3ccc(Cl)cc3)CCCCC2)n1", "RP-LC retention time": 1040}
{"smiles": "CCOc1ccc(N2CC(NC(=O)NCCc3ccc(S(N)(=O)=O)cc3)CC2=O)cc1", "note": "(centres undefined)", "RP-LC retention time": 617}
{"smiles": "O=C1CC(c2noc(-c3ccccc3)n2)CN1c1ccc(Cl)cc1", "note": "(centres undefined)", "RP-LC retention time": 1040}
{"smiles": "CCc1noc(-c2ccc(-n3cnc(C(=O)N(C)C4CCCCC4)c3)nc2)n1", "RP-LC retention time": 944}
{"smiles": "CC(C)c1ccc(CNC(=O)Cc2nnc(-c3ccccn3)o2)cc1", "RP-LC retention time": 578}
{"smiles": "Cc1nnc2ccc(NC(C)C)nn12", "RP-LC retention time": 676}
{"smiles": "CC(C)c1ccc(S(=O)(=O)N2CCC(n3c(-c4ccoc4)nc4cccnc43)C2)cc1", "note": "(centres undefined)", "RP-LC retention time": 1010}
{"smiles": "O=c1c2cc3c(cc2nc(SCc2nc(-c4cccc(F)c4)no2)n1Cc1ccccc1)OCO3", "RP-LC retention time": 1250}
{"smiles": "COCCOc1ccc2c(c1)ncn2-c1ccc2cccc(N3CCC(N)CC3)c2n1", "RP-LC retention time": 645}
{"smiles": "O=C(CN1C(=O)COc2ccc(C(=O)N3CCCC3)cc21)NCc1ccc(Cl)cc1", "RP-LC retention time": 745}
{"smiles": "COc1ccc(Cc2nnc3sc(COc4ccc(OC)cc4)nn23)cc1", "RP-LC retention time": 902}
{"smiles": "CCCN(Cc1ccc(OCC)cc1)Cc1cc(=O)n2cc(Cl)ccc2n1", "RP-LC retention time": 686}
{"smiles": "Cn1c(=O)n([C@H]2CCCN(C(=O)Nc3ccc(F)cc3F)C2)c2ncccc21", "RP-LC retention time": 752}
{"smiles": "Cc1nc(OCC(=O)NC2CCCCC2)c2c(-c3cccc(F)c3)noc2n1", "RP-LC retention time": 990}
{"smiles": "Cc1ccsc1C(=O)Nc1ccccc1Sc1c(C)c(C)nc2nc(-c3ccccc3)nn12", "RP-LC retention time": 1120}
{"smiles": "CCN1C(=O)c2c(C(=O)Nc3ccc(C)cc3)ncn2CC1(C)C(=O)NC1CCCC1", "note": "(centres undefined)", "RP-LC retention time": 822}
{"smiles": "COc1cccc(NS(=O)(=O)c2c[nH]c3ncccc23)c1", "RP-LC retention time": 688}
{"smiles": "Cc1ccc(S(=O)(=O)NC(C)c2nc(-c3ccc(-c4csc(C)n4)cc3)no2)cc1", "note": "(centres undefined)", "RP-LC retention time": 1020}
{"smiles": "CCc1noc(-c2ccc(-n3cnc(C(=O)N4CCOCC4)c3)nc2)n1", "RP-LC retention time": 691}
{"smiles": "Cc1cc(C)c(NS(=O)(=O)c2cc(-c3nc(C)cs3)sc2C)c(C)c1", "RP-LC retention time": 1190}
{"smiles": "COc1ccc(CC(=O)Nc2nc3ccc(S(=O)(=O)NC(C)C)cc3s2)cc1OC", "RP-LC retention time": 730}
{"smiles": "O=C(Nc1ccccc1F)c1c(O)c2cccnc2n(-c2cccc(F)c2)c1=O", "RP-LC retention time": 1250}
{"smiles": "Cc1ccc(Cn2cc(CCC(=O)N3CCN(c4ccccn4)CC3)c3ccccc32)cc1", "RP-LC retention time": 777}
{"smiles": "CC(C)(C)c1noc(-c2ccnc(-n3cnc(C(=O)N4CCc5ccccc5C4)c3)c2)n1", "RP-LC retention time": 1080}
{"smiles": "COc1ccc(NS(=O)(=O)c2cc(-c3[nH]ncc3C(=O)N(C)C)oc2C)cc1", "RP-LC retention time": 658}
{"smiles": "Cc1cc(C(=O)N[C@@H]2CN(c3ncccn3)C[C@H]2CO)ccn1", "RP-LC retention time": 529}
{"smiles": "CC(C)c1nnc(C2CN(C(=O)c3cccn3C)CC23CCOCC3)o1", "note": "(centres undefined)", "RP-LC retention time": 639}
{"smiles": "Cc1nn(C2CCS(=O)(=O)C2)c2nc(-c3ccc(F)cc3)cc(C(=O)N3CCCC3)c12", "note": "(centres undefined)", "RP-LC retention time": 779}
{"smiles": "Cc1ccc(NC(=O)Cn2nc(C(=O)N3CCOCC3)c3ccccc32)c(Br)c1", "RP-LC retention time": 825}
{"smiles": "O=C(c1cc(=O)[nH]c2ccccc12)N1CCCC1", "RP-LC retention time": 598}
{"smiles": "CCNC(=O)c1ccc(-c2nc3cc(NS(=O)(=O)c4cccs4)ccc3n2C)cc1", "RP-LC retention time": 630}
{"smiles": "Cc1cc(C)cc(-n2ccn(Cc3nc(-c4ccc(C)cc4C)no3)c(=O)c2=O)c1", "RP-LC retention time": 1020}
{"smiles": "CCOc1ccc(NC(=O)C2(C)Oc3cccnc3N(CC)C2=O)cc1", "note": "(centres undefined)", "RP-LC retention time": 913}
{"smiles": "CCOc1cc(=O)n2c(c1C(=O)Nc1cc(F)ccc1F)CCCC2", "RP-LC retention time": 748}
{"smiles": "CCNC(=O)c1ccc2c(c1)CCN2C(C)=O", "RP-LC retention time": 609}
{"smiles": "CCc1ccc(S(=O)(=O)N2CCc3c(c(-c4nc(C5CC5)no4)nn3C)C2)cc1", "RP-LC retention time": 1020}
{"smiles": "COc1ccc2[nH]c3c(c2c1)CCNC3c1ccc(C)cc1", "note": "(centres undefined)", "RP-LC retention time": 654}
{"smiles": "COc1ccc(N2CC(c3nc(-c4ccccc4F)no3)CC2=O)cc1OC", "note": "(centres undefined)", "RP-LC retention time": 808}
{"smiles": "CC(C)CCNC(=O)Cn1nc(S(=O)(=O)c2cccc(F)c2)ccc1=O", "RP-LC retention time": 757}
{"smiles": "CCn1ccc2sc(C)c(C(=O)N3CCC(N4CCCCC4)CC3)c2c1=O", "RP-LC retention time": 566}
{"smiles": "CC1=C(c2ccc(Cl)cc2)S(=O)(=O)N=C1N1CCCN(C(=O)c2ccco2)CC1", "RP-LC retention time": 823}
{"smiles": "Cc1cc2[nH]c(C(=O)Nc3cc(F)cc(F)c3)c(CN(C)C)c2s1", "RP-LC retention time": 715}
